From patent US7968568B2, “Substituted piperidine derivatives as SST5 modulators” (Hoffmann-La Roche Inc., priority 2006, dated 2011)

Target: T1, human subtype 5 somatostatin receptor (Homo sapiens, UniProt P35346)
T1 construct: host or cells: CHO cell line, stably transfected; membranes prepared
Experiment: SSTR5 radioligand binding assay (125I-labeled 11-Tyr somatostatin-14) on CHO cell membranes
Details: Ki calculated from IC50 by Cheng-Prussoff equation
Protocol: A CHO cell line stably transfected with a plasmid encoding the human subtype 5 somatostatin receptor (GenBank accession number D16827) was obtained from Euroscreen. Cells were cultured and used for binding and functional assays.
Membranes of these cells were prepared by sonication in the presence of protease inhibitors and subsequent fractionating centrifugation. The protein concentration in the membrane preparation was determined using a commercial kit (BCA kit, Pierce, USA). Membranes were stored at −80° C. until use. After thawing, membranes were diluted in assay buffer (50 mM Tris-HCl at pH 7.4, 5 mM MgCl2 and 0.20% BSA) and subjected to dounce homogenization.
For binding studies, 0.1 mL membrane suspension, corresponding to app. 6×10^−15 mol receptor, was incubated for 1 h at room temperature with 0.05 nM ^125I-labeled tracer (11-Tyr somatostatin-14, Perkin-Elmer) and either test compounds in varying concentrations or, for the determination of non-specific binding, 0.001 mM non-labeled somatostatin-14. The incubation was stopped by filtration through GF/B glassfiber filters and washing with ice-cold wash buffer (50 mM Tris-HCl at pH 7.4). The bound radioactivity was measured after application of a scintillation cocktail (Microscint 40) and expressed as disintegrations per minute (dpm).
The receptor concentration was determined in a prior saturation experiment where a fixed, arbitrary amount of membranes was incubated with a concentration range of radio-labeled tracer. This allows estimating the total number of specific binding sites per amount of protein (i.e., Bmax), typically between 1 and 5 pmol/mg.
The concentration of the test compound required to result in half maximal inhibition of binding of the radio-labeled tracer (IC50) was estimated from a concentration-versus-dpm graph. The binding affinity (Ki) was calculated from the IC50 by applying the Cheng-Prussoff equation for single binding sites.

T1 sequence (P35346 whole entry): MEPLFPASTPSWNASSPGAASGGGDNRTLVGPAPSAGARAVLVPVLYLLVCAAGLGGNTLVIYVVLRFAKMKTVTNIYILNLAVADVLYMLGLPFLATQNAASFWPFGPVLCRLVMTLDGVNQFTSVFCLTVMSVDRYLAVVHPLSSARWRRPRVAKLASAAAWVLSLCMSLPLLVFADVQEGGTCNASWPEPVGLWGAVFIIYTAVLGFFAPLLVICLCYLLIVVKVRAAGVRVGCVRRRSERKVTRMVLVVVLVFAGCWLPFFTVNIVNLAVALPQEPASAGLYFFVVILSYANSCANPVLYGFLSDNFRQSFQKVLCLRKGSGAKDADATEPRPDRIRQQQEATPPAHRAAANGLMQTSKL

| Ki [µM] | SMILES |
| --- | --- |
| 0.383 | CCOc1cc(CN2CCC(Nc3nc(Cl)nc4cc(Cl)c(F)cc34)CC2)ccc1OC [Example 15, (2,7-dichloro-6-fluoro-quinazolin-4-yl)-[1-(3-ethoxy-4-methoxy-benzyl)-piperidin-4-yl]-amine] |
| 0.002 | CCOc1cc(CN2CCC(Nc3ncnc4cc(Cl)ccc34)CC2)ccc1Cl [Example 23, [1-(4-chloro-3-ethoxy-benzyl)-piperidin-4-yl]-(7-chloro-quinazolin-4-yl)-amine] |
| 0.078 | C=CCOc1cc(CN2CCC(Nc3nc(Cl)ncc3OC)CC2)ccc1OC [Example 147, [1-(3-allyloxy-4-methoxy-benzyl)-piperidin-4-yl]-(2-chloro-5-methoxy-pyrimidin-4-yl)-amine] |
